The target in one test is EGFR L858R/T790M/C797S (Homo sapiens, UniProt P00533, C797S/L858R/T790M). Kind of test: Biochemical EGFR kinase inhibition assay (Lance Ultra TR-FRET), triple mutant L858R/T790M/C797S. The gist of the method: (§1)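 Enzyme reactions lasted 1 hour at room temperature with test compounds between 0.003 and 10 μM, followed by 10 mM EDTA quench.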
For orientation: TR-FRET usually uses a lanthanide donor and a delayed reading to cut background.

Another test has as its target EGFR Del19/C797S (Homo sapiens, UniProt P00533, C797S/DEL746-750). Kind of test: Biochemical EGFR kinase inhibition assay (Lance Ultra TR-FRET), double mutant del19/C797S. The essentials:
as §1

In the next test the target is EGFR L858R/C797S (Homo sapiens, UniProt P00533, C797S/L858R). Kind of test: Biochemical EGFR kinase inhibition assay (Lance Ultra TR-FRET), double mutant L858R/C797S. The essentials:
as §1

The target in a further test is EGFR wildtype (WT) (Homo sapiens, UniProt P00533). Description: Biochemical EGFR kinase inhibition assay (Lance Ultra TR-FRET), wildtype. The gist of the method:
as §1

Another test concerns the target EGFR Del19/T790M/C797S (Homo sapiens, UniProt P00533, C797S/DEL746-750/T790M). Description: Biochemical EGFR kinase inhibition assay (Lance Ultra TR-FRET), triple mutant del19/T790M/C797S. The essentials:
as §1

[1] abbreviates: ATP at Km, read-out: IC50 L858R/T790M/C797S (nM), Km ATP.
Where [2] appears, read: IC50 L858R/T790M/C797S (nM), 100 μM ATP.
[3] abbreviates: ATP at Km, read-out: IC50 Del19/C797S (nM), Km ATP.
Where [4] appears, read: IC50 Del19/C797S (nM), 100 μM ATP.
[5] abbreviates: ATP at Km, read-out: IC50 L858R/C797S (nM), Km ATP.
Where [6] appears, read: IC50 L858R/C797S (nM), 100 μM ATP.
Setting [7] is: ATP at Km, read-out: IC50 WT (nM), Km ATP.
Setting [8] is: ATP at Km, read-out: IC50 Del19/T790M/C797S (nM), Km ATP.
Where [9] appears, read: IC50 Del19/T790M/C797S (nM), 100 μM ATP.

The values that follow come from US11981658B2, “Substituted aminopyridine compounds as EGFR inhibitors” (YUHAN CORPORATION, priority 2021, dated 2024).

The structures appear in SMILES notation. Read-outs that look alike come from different tables or passages of the source. Where only a bound is given, the exact number is not on record here.

Chain of EGFR L858R/C797S (P00533 25-1210 C797S/L858R): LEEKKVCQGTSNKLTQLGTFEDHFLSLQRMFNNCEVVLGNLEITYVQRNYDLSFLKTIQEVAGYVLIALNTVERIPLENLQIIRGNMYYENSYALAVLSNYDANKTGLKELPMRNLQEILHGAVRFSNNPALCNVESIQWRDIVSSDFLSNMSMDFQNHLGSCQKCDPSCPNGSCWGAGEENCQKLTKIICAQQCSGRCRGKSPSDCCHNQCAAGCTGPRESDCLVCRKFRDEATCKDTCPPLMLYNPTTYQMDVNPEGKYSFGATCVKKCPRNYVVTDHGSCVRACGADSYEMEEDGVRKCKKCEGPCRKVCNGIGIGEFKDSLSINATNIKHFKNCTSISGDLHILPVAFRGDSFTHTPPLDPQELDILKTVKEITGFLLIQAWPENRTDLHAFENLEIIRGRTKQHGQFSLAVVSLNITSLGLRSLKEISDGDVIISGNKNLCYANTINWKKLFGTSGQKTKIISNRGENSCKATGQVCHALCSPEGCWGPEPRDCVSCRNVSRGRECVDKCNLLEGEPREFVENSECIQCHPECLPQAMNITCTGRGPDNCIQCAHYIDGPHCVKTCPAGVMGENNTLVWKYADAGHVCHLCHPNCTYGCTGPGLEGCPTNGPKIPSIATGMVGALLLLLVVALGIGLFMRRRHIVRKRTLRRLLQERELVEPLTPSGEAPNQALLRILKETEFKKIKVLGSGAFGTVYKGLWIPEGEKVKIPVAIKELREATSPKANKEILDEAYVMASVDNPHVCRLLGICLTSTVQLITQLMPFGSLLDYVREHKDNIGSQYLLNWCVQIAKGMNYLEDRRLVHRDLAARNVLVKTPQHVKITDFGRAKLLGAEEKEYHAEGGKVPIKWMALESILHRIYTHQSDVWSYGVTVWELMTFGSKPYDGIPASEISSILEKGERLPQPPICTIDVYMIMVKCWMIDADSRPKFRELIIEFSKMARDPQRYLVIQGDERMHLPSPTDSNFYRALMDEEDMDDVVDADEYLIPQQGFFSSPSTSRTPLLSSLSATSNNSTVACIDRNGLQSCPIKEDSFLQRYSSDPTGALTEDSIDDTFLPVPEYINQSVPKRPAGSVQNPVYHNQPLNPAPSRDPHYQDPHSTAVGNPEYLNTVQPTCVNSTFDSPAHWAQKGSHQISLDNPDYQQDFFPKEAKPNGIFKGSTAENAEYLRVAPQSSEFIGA
Chain of EGFR L858R/T790M/C797S (P00533 25-1210 T790M/C797S/L858R): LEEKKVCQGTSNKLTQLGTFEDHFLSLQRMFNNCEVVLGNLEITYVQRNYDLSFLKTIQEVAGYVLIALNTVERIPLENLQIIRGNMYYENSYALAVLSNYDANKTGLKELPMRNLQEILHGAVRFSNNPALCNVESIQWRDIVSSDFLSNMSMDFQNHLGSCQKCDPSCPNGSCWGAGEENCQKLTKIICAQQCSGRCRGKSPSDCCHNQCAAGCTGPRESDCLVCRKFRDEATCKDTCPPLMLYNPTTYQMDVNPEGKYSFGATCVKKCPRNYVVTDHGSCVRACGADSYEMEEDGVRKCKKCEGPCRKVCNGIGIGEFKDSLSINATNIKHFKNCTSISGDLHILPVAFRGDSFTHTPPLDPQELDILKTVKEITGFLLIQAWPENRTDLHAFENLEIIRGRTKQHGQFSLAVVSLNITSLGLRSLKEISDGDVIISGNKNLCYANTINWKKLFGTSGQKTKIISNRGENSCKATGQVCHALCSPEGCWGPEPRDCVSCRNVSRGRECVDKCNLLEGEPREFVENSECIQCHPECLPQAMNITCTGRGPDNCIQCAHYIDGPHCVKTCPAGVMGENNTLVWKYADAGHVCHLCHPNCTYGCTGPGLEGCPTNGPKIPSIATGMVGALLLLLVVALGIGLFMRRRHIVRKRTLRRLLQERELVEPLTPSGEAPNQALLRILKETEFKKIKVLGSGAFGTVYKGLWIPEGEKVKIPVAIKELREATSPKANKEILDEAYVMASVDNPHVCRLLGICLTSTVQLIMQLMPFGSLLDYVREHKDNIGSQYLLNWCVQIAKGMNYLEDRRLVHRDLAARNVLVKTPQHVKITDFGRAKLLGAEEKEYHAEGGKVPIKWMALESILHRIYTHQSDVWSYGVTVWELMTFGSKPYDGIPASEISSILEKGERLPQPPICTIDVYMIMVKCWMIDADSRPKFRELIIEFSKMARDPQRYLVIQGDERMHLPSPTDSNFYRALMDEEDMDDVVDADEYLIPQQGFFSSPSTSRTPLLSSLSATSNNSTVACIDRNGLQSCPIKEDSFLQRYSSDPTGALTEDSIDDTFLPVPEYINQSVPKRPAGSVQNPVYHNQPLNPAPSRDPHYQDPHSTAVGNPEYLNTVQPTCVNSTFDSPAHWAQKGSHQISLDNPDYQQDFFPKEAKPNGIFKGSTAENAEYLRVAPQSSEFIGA
Chain of EGFR Del19/C797S (P00533 with tags, fused parts or gaps DEL746-750/C797S): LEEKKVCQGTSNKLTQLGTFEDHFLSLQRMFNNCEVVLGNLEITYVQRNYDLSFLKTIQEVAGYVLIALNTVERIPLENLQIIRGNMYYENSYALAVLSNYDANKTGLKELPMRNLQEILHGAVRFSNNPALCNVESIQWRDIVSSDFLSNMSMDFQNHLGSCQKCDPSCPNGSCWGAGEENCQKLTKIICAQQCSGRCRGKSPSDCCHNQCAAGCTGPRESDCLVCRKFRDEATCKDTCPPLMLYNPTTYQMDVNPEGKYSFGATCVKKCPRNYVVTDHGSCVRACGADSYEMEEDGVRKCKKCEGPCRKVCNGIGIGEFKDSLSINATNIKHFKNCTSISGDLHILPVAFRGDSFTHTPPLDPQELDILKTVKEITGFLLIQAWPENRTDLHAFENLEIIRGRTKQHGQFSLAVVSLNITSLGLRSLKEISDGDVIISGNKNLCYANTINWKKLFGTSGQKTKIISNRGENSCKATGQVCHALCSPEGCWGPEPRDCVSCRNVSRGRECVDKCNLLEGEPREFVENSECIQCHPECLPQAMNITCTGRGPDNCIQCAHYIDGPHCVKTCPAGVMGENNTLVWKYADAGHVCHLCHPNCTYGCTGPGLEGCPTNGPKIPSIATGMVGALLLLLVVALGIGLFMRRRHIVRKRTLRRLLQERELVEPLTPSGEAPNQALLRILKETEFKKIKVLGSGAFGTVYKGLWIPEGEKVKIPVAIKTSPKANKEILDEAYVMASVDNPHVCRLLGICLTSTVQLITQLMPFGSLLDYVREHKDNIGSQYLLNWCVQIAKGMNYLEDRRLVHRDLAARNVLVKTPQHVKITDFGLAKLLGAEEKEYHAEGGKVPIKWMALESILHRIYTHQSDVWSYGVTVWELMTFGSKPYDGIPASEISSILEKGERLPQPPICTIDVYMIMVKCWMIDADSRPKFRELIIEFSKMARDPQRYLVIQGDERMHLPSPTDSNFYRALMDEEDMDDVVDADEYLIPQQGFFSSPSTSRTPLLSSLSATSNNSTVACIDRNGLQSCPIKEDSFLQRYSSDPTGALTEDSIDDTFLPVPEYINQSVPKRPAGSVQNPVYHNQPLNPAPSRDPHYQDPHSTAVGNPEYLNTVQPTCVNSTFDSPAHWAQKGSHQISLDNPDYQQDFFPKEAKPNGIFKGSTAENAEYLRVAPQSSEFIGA
Chain of EGFR Del19/T790M/C797S (P00533 with tags, fused parts or gaps DEL746-750/T790M/C797S): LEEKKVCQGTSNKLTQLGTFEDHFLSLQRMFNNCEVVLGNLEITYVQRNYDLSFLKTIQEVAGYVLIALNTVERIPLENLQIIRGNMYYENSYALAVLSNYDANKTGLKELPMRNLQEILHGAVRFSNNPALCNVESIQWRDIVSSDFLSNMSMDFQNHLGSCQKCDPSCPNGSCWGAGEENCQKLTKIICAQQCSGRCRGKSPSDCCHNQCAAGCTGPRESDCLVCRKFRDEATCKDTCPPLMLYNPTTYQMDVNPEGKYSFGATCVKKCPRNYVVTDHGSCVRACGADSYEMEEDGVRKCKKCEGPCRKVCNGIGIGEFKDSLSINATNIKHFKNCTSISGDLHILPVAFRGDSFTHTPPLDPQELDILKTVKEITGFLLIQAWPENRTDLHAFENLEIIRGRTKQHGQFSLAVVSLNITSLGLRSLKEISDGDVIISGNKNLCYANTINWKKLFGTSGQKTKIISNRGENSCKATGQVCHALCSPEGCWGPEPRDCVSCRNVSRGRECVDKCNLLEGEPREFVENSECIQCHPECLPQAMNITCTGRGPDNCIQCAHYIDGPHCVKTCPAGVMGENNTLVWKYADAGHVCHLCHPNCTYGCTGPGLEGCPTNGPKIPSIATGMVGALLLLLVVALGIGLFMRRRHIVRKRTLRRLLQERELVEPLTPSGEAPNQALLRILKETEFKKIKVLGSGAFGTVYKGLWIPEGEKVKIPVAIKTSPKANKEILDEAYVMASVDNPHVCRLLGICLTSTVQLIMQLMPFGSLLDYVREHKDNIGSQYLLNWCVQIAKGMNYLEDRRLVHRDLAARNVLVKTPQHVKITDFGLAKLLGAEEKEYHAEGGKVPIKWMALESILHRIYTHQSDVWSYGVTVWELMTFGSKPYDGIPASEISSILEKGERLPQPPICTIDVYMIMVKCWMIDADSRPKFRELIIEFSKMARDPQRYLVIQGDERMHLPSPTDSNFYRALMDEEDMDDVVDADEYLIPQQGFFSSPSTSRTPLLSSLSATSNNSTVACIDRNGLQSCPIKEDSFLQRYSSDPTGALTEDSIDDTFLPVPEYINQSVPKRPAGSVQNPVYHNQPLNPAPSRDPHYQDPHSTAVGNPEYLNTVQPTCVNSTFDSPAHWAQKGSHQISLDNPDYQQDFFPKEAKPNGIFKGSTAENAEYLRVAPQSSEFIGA

On to `CN(C)C[C@H]1CC[C@@H](Nc2cc(Nc3ccnc(-c4cnn(S(=O)(=O)C5CC5)c4)n3)ncc2C#Cc2cnn(C)c2)CC1` [Example 312, N^2-(2-(1-(Cyclopropylsulfonyl)-1H-pyrazol-4-yl)pyrimidin-4-yl)-N^4-((1s,4s)-4-((dimethylamino)methyl)cyclohexyl)-5-((1-methyl-1H-pyrazol-4-yl)ethynyl)pyridine-2,4-diamine], for which the IC50 at EGFR L858R/T790M/C797S (setting [1]) amounted to 0.1 nM; on EGFR L858R/T790M/C797S (setting [2]), 0.4 nM; on EGFR Del19/C797S (setting [3]), 1.1 nM; on EGFR Del19/C797S (setting [4]), 2.4 nM; on EGFR L858R/C797S (setting [5]), 1.1 nM; against EGFR L858R/C797S (setting [6]), 12.2 nM. Moreover, the IC50 was 9.6 nM on EGFR wildtype (WT) (setting [7]); 6180 nM against EGFR wildtype (WT) (IC50 WT (nM), 100 μM ATP); 0.3 nM at EGFR Del19/T790M/C797S (setting [8]); 0.3 nM at EGFR Del19/T790M/C797S (setting [9]).

Turning to `CC1(CO)CCN(c2cc(Nc3ccnc(-c4cnn(S(=O)(=O)C5CC5)c4)n3)ncc2C#CC2CCCCC2)CC1` [Example 252, (1-(5-(Cyclohexylethynyl)-2-((2-(1-(cyclopropylsulfonyl)-1H-pyrazol-4-yl)pyrimidin-4-yl)amino)pyridin-4-yl)-4-methylpiperidin-4-yl)methanol], the IC50 at EGFR L858R/T790M/C797S (setting [1]) was 4.3 nM; at EGFR L858R/T790M/C797S (setting [2]), 15.9 nM; on EGFR Del19/C797S (setting [3]) it was 35.9 nM; against EGFR Del19/C797S (setting [4]) it was 39.9 nM; on EGFR L858R/C797S (setting [5]), 100 nM; at EGFR L858R/C797S (setting [6]), 2080 nM. The IC50 at EGFR wildtype (WT) (setting [7]) is 235 nM; against EGFR wildtype (WT) (IC50 WT (nM), 100 μM ATP) it was above 10000 nM; on EGFR Del19/T790M/C797S (setting [8]), 8.5 nM; against EGFR Del19/T790M/C797S (setting [9]) it was 7.9 nM.

With `O=S(=O)(C1CC1)n1cc(-c2nccc(Nc3cc(N[C@H]4CC[C@@H](O)CC4)c(C#Cc4ccc(CN5CCOCC5)cn4)cn3)n2)cn1` [Example 184, (1s,4s)-4-((2-((2-(1-(Cyclopropylsulfonyl)-1H-pyrazol-4-yl)pyrimidin-4-yl)amino)-5-((5-(morpholinomethyl)pyridin-2-yl)ethynyl)pyridin-4-yl)amino)cyclohexan-1-ol], the IC50 came out at 0.2 nM on EGFR L858R/T790M/C797S (setting [1]); 2.1 nM against EGFR L858R/T790M/C797S (setting [2]); 2.3 nM on EGFR Del19/C797S (setting [3]); 3.5 nM against EGFR Del19/C797S (setting [4]); 3.2 nM on EGFR L858R/C797S (setting [5]); 94.1 nM at EGFR L858R/C797S (setting [6]). Further, the IC50 at EGFR wildtype (WT) (setting [7]) was 11.7 nM; against EGFR wildtype (WT) (IC50 WT (nM), 100 μM ATP) it was above 10000 nM; on EGFR Del19/T790M/C797S (setting [8]), 0.4 nM; against EGFR Del19/T790M/C797S (setting [9]), 1.5 nM.

For `CC1(CO)CCN(c2cc(Nc3ccnc(-c4cnn(S(=O)(=O)C5CC5)c4)n3)ncc2C#CCCO)CC1` [Example 274, 4-(6-((2-(1-(Cyclopropylsulfonyl)-1H-pyrazol-4-yl)pyrimidin-4-yl)amino)-4-(4-(hydroxymethyl)-4-methylpiperidin-1-yl)pyridin-3-yl)but-3-yn-1-ol], the IC50 at EGFR L858R/T790M/C797S (setting [1]) was 0.1 nM; against EGFR L858R/T790M/C797S (setting [2]) it was 0.2 nM; on EGFR Del19/C797S (setting [3]) it was 0.4 nM; at EGFR Del19/C797S (setting [4]), 0.6 nM; at EGFR L858R/C797S (setting [5]) it was 1 nM; on EGFR L858R/C797S (setting [6]), 10.8 nM. In addition, the IC50 at EGFR wildtype (WT) (setting [7]) came to 4.4 nM; against EGFR wildtype (WT) (IC50 WT (nM), 100 μM ATP), 1890 nM; at EGFR Del19/T790M/C797S (setting [8]), 0.1 nM; against EGFR Del19/T790M/C797S (setting [9]), 0.2 nM.

For `CC1(CO)CCN(c2cc(Nc3ccnc(-c4cnn(S(=O)(=O)C5CC5)c4)n3)ncc2C#Cc2cnn(C3CC3)c2)CC1` [Example 47, (1-(5-((1-Cyclopropyl-1H-pyrazol-4-yl)ethynyl)-2-((2-(1-(cyclopropylsulfonyl)-1H-pyrazol-4-yl)pyrimidin-4-yl)amino)pyridin-4-yl)-4-methylpiperidin-4-yl)methanol], the IC50 against EGFR L858R/T790M/C797S (setting [2]) came out at 3.5 nM; at EGFR L858R/T790M/C797S (Km ATP, read-out: IC50 L858R/T790M/C797S (nM) Km ATP), 1.4 nM; against EGFR Del19/C797S (setting [4]), 1.6 nM; on EGFR Del19/C797S (Km ATP, read-out: IC50 Del19/C797S (nM) Km ATP), 2.6 nM; on EGFR L858R/C797S (setting [6]), 7.8 nM; on EGFR L858R/C797S (Km ATP, read-out: IC50 L858R/C797S (nM) Km ATP), 3.3 nM. Further, the IC50 on EGFR wildtype (WT) (IC50 WT (nM), 100 μM ATP) was 1740 nM; at EGFR wildtype (WT) (Km ATP, read-out: IC50 WT (nM) Km ATP) it was 19.6 nM; at EGFR Del19/T790M/C797S (setting [9]), 2.8 nM; at EGFR Del19/T790M/C797S (Km ATP, read-out: IC50 Del19/T790M/C797S (nM) Km ATP) it was 2.1 nM.

As for `O=C(N1CCC(C#Cc2cnc(Nc3ccnc(-c4cnn(S(=O)(=O)C5CC5)c4)n3)cc2NC2CCC(O)CC2)C1)C(F)(F)F` (stereo not shown) [Example 414, 1-(3-((6-((2-(1-(Cyclopropylsulfonyl)-1H-pyrazol-4-yl)pyrimidin-4-yl)amino)-4-(((1 s, 4s)-4-hydroxycyclohexyl)amino)pyridin-3-yl)ethynyl)pyrrolidin-1-yl)-2,2,2-trifluoroethan-1-one], the IC50 against EGFR L858R/T790M/C797S (setting [2]) worked out at 3.9 nM; against EGFR Del19/C797S (setting [4]), 1.8 nM; on EGFR L858R/C797S (setting [6]) it was 24.1 nM; against EGFR wildtype (WT) (IC50 WT (nM), 100 μM ATP) it was 5190 nM; at EGFR Del19/T790M/C797S (setting [9]) it was 0.4 nM.
